Test results published in PMC4336331, “Novel Receptor-Derived Cyclopeptides to Treat Heart Failure Caused by Anti-β1-Adrenoceptor Antibodies in a Human-Analogous Rat Model” (PLoS ONE, 2015).

Assays:
[1] = test system: anti-β1EC2-induced β1-AR/cAMP signaling in HEKβ1-cells; assay: FRET cAMP assay (Epac1-camps), blockade of anti-β1EC2-induced signals; type: cell-based, human; conditions: HEKβ1-cells with Epac1-camps FRET-sensor; IgG pre-incubated with peptide (Fig. 1F)
Procedure: The effects of anti-β1EC2 on β1AR-mediated intracellular cAMP-production were assessed by measuring fluorescence resonance energy transfer (FRET) in HEKβ1-cells transiently transfected with a FRET-sensor for cAMP, Epac1-camps. The sensor consists of the cAMP-binding protein Epac1 flanked by enhanced cyan or yellow fluorescent protein. […] IgG-preparations were added to the cells at 0.13 μg/μl protein concentration; 2μM (-)isoproterenol (Sigma) was used as a reference to determine the maximal cAMP-response. To test the blocking-efficacy of β1EC2-CP on anti-β1EC2-induced adrenergic signaling, the different IgG-preparations were pre-incubated with β1EC2-CP (20 μg/μl) for 6 h at 4 °C; for pharmacological blockade of anti-β1EC2-induced signals we utilised 5.0μM bisoprolol.
(D) Immunostaining experiments with rat anti- β1EC2 (1:100) using HEK-cells stably expressing β1-ARs (HEK β1) or not (wild type; HEK WT). IgG was prepared from anti- β1EC2-positive rats or 0.9% NaCl-injected control rats. Amino-terminal β1AR-specific rabbit anti-bodies (1:250) served as positive controls. […] HEK β1-cells were transfected with the cAMP-sensor Epac1-camps, which reacts to cAMP-binding with a reduction in fluorescence resonance energy transfer (FRET) between its fluorophores cyan (CFP) and yellow fluorescent protein (YFP). […] Representative FRET-ratio traces of 1/5 experiments are shown. Values are given in % of maximal cAMP-response achieved with 0.3μM (-)isoproterenol (Iso).

rat anti-β1EC2 = assay: Competition-ELISA, blocking of rat anti-β1EC2; type: binding; conditions: preincubation (12h, 4°C) with 40-fold excess of peptide; linear β1EC2-peptides (AA199-223) as antigen; n = 20 (Fig. 1B)

For “cyclo(RATHQEAINCYANETCCDFFTNQG) (cysteine pairing not given here) [β2EC2-CP, control for specificity, reference compound]”, the “blockade of anti-β1EC2-induced cAMP-signals, in words” value [1] was “not blocked at all” and the “blocking of anti-β1EC2 in competition-ELISA, in words” value (rat anti-β1EC2) was “not blocked at all”.
